In BindingDB's records for doi:10.1016/j.bmcl.2003.11.082 (Cubist Pharmaceuticals, 2004):

How the values were obtained:
[1] = biological target: Phenylalanine--tRNA ligase (Staphylococcus aureus); assay: Compound was evaluated for the inhibitory activity against Staphylococcus aureus phenylalanyl-tRNA synthetase
[2] = biological target: Phenylalanine--tRNA ligase (Escherichia coli); assay: Compound was evaluated for the inhibitory activity against Escherichia coli phenylalanyl-tRNA synthetase

IC50 [1]: 33 µM
IC50 [2]: 11 µM
Structure (SMILES): O=C(Nc1ccc(Cl)c(Cl)c1)[C@H]1[C@@H](C(=O)O)C2(O[C@H]1c1ccccc1)C(=O)c1ccccc1C2=O [4-(3,4-dichlorophenylcarbamoyl)-1',3'-dioxo-5-phenylspiro[tetrahydrofuran-2,2'-(2',3'-dihydro-1'H-indene)]-3-carboxylic acid]
